We go through 8 compounds from patent publication US8957205B2, “Cycloalkane carboxamide derivatives and production process of same” (Seikagaku Corporation, priority 2006, dated 2015).

Assay [1] addresses T1, Human cathepsin B (Homo sapiens, UniProt P07858).
T1 construct: purchased Calbiochem Corp
Briefly: Measurement of cathepsin B inhibitory activity (Z-Arg-Arg-MCA fluorescent substrate). The format is biochemical. As to conditions: selectivity ratio B/K. The protocol:
(§1) Human cathepsin B (Calbiochem Corp.) was used for measurement. Activity was measured based on decomposition of the fluorescent substrate Z-Arg-Arg-MCA (Peptide Institute, Inc.) following the method of Barrett et al.^3). Namely, the decomposition of 20 mM Z-Arg-Arg-MCA by cathepsin B was measured in 100 mM sodium/potassium phosphate, 1 mM EDTA, 8 mM cysteine and 0.005% Brij35 at pH 6.0. The reaction was carried out for 30 minutes at 30° C., and stopped by the addition of 2×10^−5 M Calpeptin. After stopping the reaction, fluorescent intensity was measured at an excitation wavelength of 355 nm and measurement wavelength of 460 nm. Inhibition of cathepsin B by the compounds was examined using the reaction system described above.

The target in assay [2] is T2, Human cathepsin L (Homo sapiens, UniProt P07711).
T2 construct: purchased Calbiochem Corp
Briefly: Measurement of cathepsin L inhibitory activity (Z-Phe-Arg-MCA fluorescent substrate). The format is biochemical. As to conditions: selectivity ratio L/K. The protocol: as §1, with “cathepsin L” for “cathepsin B”, “substrate Z-Phe-Arg-MCA” for “substrate Z-Arg-Arg-MCA”, “[…] Z-Phe-Arg-MCA” for “mM Z-Arg-Arg-MCA”, “mM sodium acetate, 5” for “mM sodium/potassium phosphate, 1”, “EDTA, 4 mM urea,” for “EDTA,”, “pH 5.5.” for “pH 6.0.”

*1 amine or outer side, *2 acyl side, *3 side chain or, on linkers, in order; H or OH if unused. Where a SMILES comes first, the peptide text is derived from it. [ ]: non-standard residue; d: D form. The star is where a group is joined. Ac6c = NC1(C(=O)O)CCCCC1; Morpholide = C1CN(*)CCO1; Nle = CCCC[C@H](N)C(=O)O; Cbz = O=C(OCc1ccccc1)*; CO = O=C([*:1])[*:2]

T2 sequence (P07711 114-333): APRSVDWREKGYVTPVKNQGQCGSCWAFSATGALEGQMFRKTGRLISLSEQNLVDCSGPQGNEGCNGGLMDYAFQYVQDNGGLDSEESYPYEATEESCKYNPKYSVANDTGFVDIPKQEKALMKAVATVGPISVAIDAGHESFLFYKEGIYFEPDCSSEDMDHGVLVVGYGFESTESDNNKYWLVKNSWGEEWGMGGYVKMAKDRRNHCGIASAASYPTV

Regarding `CC(C)[C@@H](C=O)NC(=O)C1(NC(=O)OCc2ccccc2)CCCCC1` [Example 7, N-[[1-[[(Phenylmethoxy)carbonyl]amino]cyclohexyl]carbonyl]-L-valinal] (Cbz-[Ac6c]-Val-aldehyde), the “B/K (ratio of cathepsin B IC50 to cathepsin K IC50)” value in assay [1] worked out at 230. Moreover, the “L/K (ratio of cathepsin L IC50 to cathepsin K IC50)” value in assay [2] was determined as 400.

Take `CCCC[C@@H](C=O)NC(=O)C1(NC(=O)OCc2ccccc2)CCCCC1` [Example 8, N-[[1-[[(Phenylmethoxy)carbonyl]amino]cyclohexyl]carbonyl]-L-norleucinal] (Cbz-[Ac6c]-[Nle]-aldehyde): in assay [1], the “B/K (ratio of cathepsin B IC50 to cathepsin K IC50)” value came out at 35. Besides, the “L/K (ratio of cathepsin L IC50 to cathepsin K IC50)” value in assay [2] is given as 50.

Regarding `CC(C)[C@@H](C=O)NC(=O)C1(NC(=O)c2ccco2)CCCCC1` [Example 9, N-[[1-[(2-Furanylcarbonyl)amino]cyclohexyl]carbonyl]-L-valinal], the “B/K (ratio of cathepsin B IC50 to cathepsin K IC50)” value in assay [1] turned out to be 87. Besides, the “L/K (ratio of cathepsin L IC50 to cathepsin K IC50)” value in assay [2] is reported as 370.

Take `CCCC[C@@H](C=O)NC(=O)C1(NC(=O)N2CCOCC2)CCCCC1` [Example 10, N-[[1-[(4-Morpholinylcarbonyl)amino]cyclohexyl]carbonyl]-L-norleucinal] ({Morpholide-CO}-[Ac6c]-[Nle]-aldehyde): the “B/K (ratio of cathepsin B IC50 to cathepsin K IC50)” value in assay [1] was found to be 12. Further, the “L/K (ratio of cathepsin L IC50 to cathepsin K IC50)” value in assay [2] is recorded as 21.

Consider `CC(C)C[C@H](NC(=O)OCc1ccccc1)C(=O)N[C@H](C=O)C(C)C` [Reference Example 184, N—[N-[(Phenylmethoxy)carbonyl]-L-leucyl]-L-valinal] (Cbz-Leu-Val-aldehyde), for which the “B/K (ratio of cathepsin B IC50 to cathepsin K IC50)” value in assay [1] worked out at 58. Further, the “L/K (ratio of cathepsin L IC50 to cathepsin K IC50)” value in assay [2] was 74.

`CCCC[C@@H](C=O)NC(=O)[C@H](CC(C)C)NC(=O)OCc1ccccc1` [Reference Example 185, N—[N-[(Phenylmethoxy)carbonyl]-L-leucyl]-L-norleucinal]: the “B/K (ratio of cathepsin B IC50 to cathepsin K IC50)” value in assay [1] worked out at 11. In addition, in assay [2], the “L/K (ratio of cathepsin L IC50 to cathepsin K IC50)” value came out at 15.

On to `CCCC[C@@H](C=O)NC(=O)[C@H](CC(C)C)NC(=O)N1CCOCC1` [Reference Example 186, N—[N-(4-Morpholinylcarbonyl)-L-leucyl]-L-norleucinal], for which the “B/K (ratio of cathepsin B IC50 to cathepsin K IC50)” value in assay [1] came out at 4.3. Moreover, the “L/K (ratio of cathepsin L IC50 to cathepsin K IC50)” value in assay [2] stood at 7.3.

On to `CC(C)C[C@H](NC(=O)c1ccco1)C(=O)N[C@H](C=O)C(C)C` [Reference Example 187, N—[N-(2-Furanylcarbonyl)-L-leucyl]-L-valinal], for which the “B/K (ratio of cathepsin B IC50 to cathepsin K IC50)” value in assay [1] was 30. For the same compound, the “L/K (ratio of cathepsin L IC50 to cathepsin K IC50)” value in assay [2] stood at 35.
